Measured values: patent EP0470323A2, “New salts of the nicotinic acid with aminobenzylic compounds and their pharmaceutical use” (BROMLEY LIMITED, priority 1990, dated 1992)

Experiments:
[1] = tested on: Thyphirium salmonella strains (TA 98, TA 100, TA 1535, and TA 1538); assay type: cell-based
From the text: (§1) The compound according to the Example 1 has been tested, in order to check and see its mutagenic effects.

[2] = tested on: red cells in the rat; test: Red cell deformability / filtration, Schmidt-Schönbein method; assay type: in vivo; conditions: dose 3 x 0,5 mM/kg/os, listed as Compound as Ex. 1
From the text: steresis (Teiltel P.: Nouv. Rev. Franç. Hématol. 7, 195, 1967). Any alteration, almost undoubtely at the level of the red cell's membrane, cause some damaging variations of the red cell's elasticity thus making more difficult the passing through the capillary vessels having more reduced diameter, and therefore increasing the flow resistance in the peripheral vessels systems. In order to determine the effect caused by the compound according to the Example 1, on these features of the red cell, the method described by Schmidt, Schonbein and colleagues (Blut 26, 369, 1973) has been used.
In the circulatory flow, the above mentioned capillary vessels being excluded, the blood cells do normally circulate being attached between each other because of their adhesiveness. In order to study this adhesion force, the above mentioned Teitel method has been used. Male rats of 150 g body weight approximately have been employed, and they have been treated for three consecutive days with 0,5 mM/kg/os of the compound according to the Example 1, or otherwise Buflomedil, or even Pentosiphillin used as comparison substance. After the last treatment the animals, without eating from 18 hours, have been killed in a light ethereal anaesthesy and the blood was collected over an 0,2 molar EDTA (9 and 1 volumes respectively). The red cells filtering possibility, measured with the Teitel method, wherein the quantity of red cells passing, in high haematocritical conditions, through a paper filter with holes of 20-40 µm in a previously determined time, has been ascertained as follows: the blood was centrifuged for ten minutes at 2000 rpm in order to obtain the massing of the red cells, two ml of the blood collected as above were put into an upside down turned cone made with filtering paper, being previously wetted with a physiological solution. The volume passing through the filter in 2 - 4 - 8 and 16 minutes is then measured. […]

[3] = tested on: HeLa cells (DnA-repair); test: Mutagenic action of urines of intragastrically treated rats on HeLa cells (DNA repair); assay type: cell-based, human; conditions: urines of rats treated intragastrically with two doses, with metabolic activation, beta-glucoronidase absent
[4] = tested on: HeLa human cells cultures; test: DNA repair synthesis (tritiated thymidine incorporation) in HeLa cell cultures; assay type: cell-based; conditions: vs controls treated with solvent, dosages tested
From the text: as §1

[5] = tested on: pl strain of Schiosaccharomyces Pombe; test: Frequency of mutations in yeast, with and without microsomal fraction; assay type: cell-based; conditions: tested dosages, with and without microsmial fraction
From the text: as §1

[6] = tested on: aggregation of the platelets caused by the collagene; test: Anti-aggregating ex vivo activity against collagen in the rat; conditions: for Latency time (sec.) / Transmittance percentage (maximum aggregation): PRP 2 hours after last treatment, collagene 4 mcg/ml
Experimental: Six groups of 15 male rats of 200 - 250 g have been used.
The blood taken from the three rats of each group has been mixed and centrifuged during 6 minutes at 1400 rpm, at room temperature. After having taken the plasma full of platelets (PRP) the thereunder floating material has been centrifuged again (4000 rpm during 10 minutes) in order to have the plasma with few platelets (PPP) separated from the balance. The PRP has been diluted with a part of PPP in order to bring the number of platelets to 350 ± 50 x 10³/mm³. The aggregation has been evaluated in accordance with the method of Minsker D.H. and coll. (J. Pharmacol.Exp.Ther. 210 37 1979) by using an ELVI 840 two-channels aggregometer and an Omniscribe recorder B.500. A quantity of 0,25 ml PRP has been used, transferred into the aggregometer for two minutes at 37°C and stirred at 1000 rpm. The light intensity was arranged in such a way, to obtain 0% transmittance with the PRP and 100% with the PPP. After 2′ incubation, by means of microsyringe the collagene was added to the PRP in a volume quantity of 5 mcl with the final concentration of 4 mcg/ml.
From the aggregation trace of the recorder the following data have been evaluated: • a) latent time of the aggregation (seconds between the introductions of collagene and the starting of the aggregation) • b) transmittance increase percentage (maximum aggregation). The same proceeding was repeated for all animals, always by mixing the blood of three rats belonging to the same group and by obtaining in this manner five aggregation curves per group.

[7] = tested on: skin temperature of the mouse's paw; test: Peripheral vessel-dilating activity in the mouse (skin temperature of hind paws); assay type: in vivo; conditions: for Temperature (°C) of the hind paws (n=10): intravenous; for Temperature (°C) of the hind paws: oral
Experimental: The method of Richter W. (Acta Pharm. Toxicol. 21, 91; 1974) was used; it consists in determining, at fixed time intervals after the treatment, the skin temperature of the mouse's paw, by keeping the animals in rooms at a constant temperature of 21°C.
Some groups of ten male mouses each have been used; the weight of each animal was 30 g approximately.
The compound according to the Example 1 has been tested "per os" at three basic levels of the doses (0,125 - 0,25 - 0,5 mM/kg) and by intravenous injection at two dose levels (0,015 and 0,03 mM/kg), in comparison with one sole dose of Papaverin and chlorhydrated Buflomedil (0,5 mM/kg "per os" and 0,03m M/kg intravenous). The observation of the skin temperature at the mouse's paw was made before the treatment, 30, 60 and 120 minutes after the "per os" treatment, […] (A-Hl Ellab) connected with an Ellab electric recorder. Of each animal the temperature of both hind paws has been measured, and the values obtained have been averaged .

[8] = rat, 1,00 mM/kg os for 4 days, listed as Compound according to the Example N° 1

**Q.** Which results are given for `COc1cc(OC)c(C(=O)CCCN2CCCC2)c(OC)c1` [Example 1, 4-(1 pyrrholydinyl)-1-(2,4,6 trimethoxypheniyl)-1-nicotinized butanone]?
**A.** mutagenic activity [1]: did not show any mutagenic activity; Schmidt-Schönbein method Δ % vs contr. [2]: 46,2%; mutagenic action [3]: any mutagenic action did not result; quantity of tritium-added Thymidine included into the DNA of the cells (repair synthese) [4]: did not determine any variation; frequency of mutations [5]: did not increase; Latency time, % variation vs controls ([6]; rat, 0,25 mM/kg os for 4 days): +15,7%; Transmittance percentage, % variation vs controls ([6]; rat, 0,25 mM/kg os for 4 days): -14,4%; Latency time (sec.) ([6]; rat, 0,25 mM/kg os for 4 days): 43,4 ± 4,2 sec.; Transmittance percentage (maximum aggregation) ([6]; rat, 0,25 mM/kg os for 4 days): 67,3 ± 4,4%; Latency time, % variation vs controls ([6]; rat, 0,50 mM/kg os for 4 days): +38,7%; Transmittance percentage, % variation vs controls ([6]; rat, 0,50 mM/kg os for 4 days): -34,3%; Latency time (sec.) ([6]; rat, 0,50 mM/kg os for 4 days): 52,0 ± 3,5 sec.; Transmittance percentage (maximum aggregation) ([6]; rat, 0,50 mM/kg os for 4 days): 51,6 ± 4,0%; Latency time (sec.) [6, 8]: 64,5 ± 5,4 sec.; Transmittance percentage (maximum aggregation) [6, 8]: 30,2 ± 3,6%; Latency time, % variation vs controls [6, 8]: +72,0%; Transmittance percentage, % variation vs controls [6, 8]: -61,6%; Temperature (°C) of the hind paws (n=10) ([7]; dose 0,015 mM/kg/iv, 0 minutes (before the treatment)): 24,3 ± 0,25 °C; Temperature (°C) of the hind paws (n=10) ([7]; dose 0,015 mM/kg/iv, 30 minutes from the treatment): 25,9 ± 0,18 °C; Temperature (°C) of the hind paws (n=10) ([7]; dose 0,015 mM/kg/iv, 60 minutes from the treatment): 25,8 ± 0,30 °C; Temperature (°C) of the hind paws (n=10) ([7]; dose 0,015 mM/kg/iv, 120 minutes from the treatment): 25,4 ± 0,22 °C; Temperature (°C) of the hind paws (n=10) ([7]; dose 0,030 mM/kg/iv, 0 minutes (before the treatment), listed as Compound according to the Ex.1): 24,2 ± 0,20 °C; Temperature (°C) of the hind paws (n=10) ([7]; dose 0,030 mM/kg/iv, 30 minutes from the treatment, listed as Compound according to the Ex.1): 26,7 ± 0,31 °C; Temperature (°C) of the hind paws (n=10) ([7]; dose 0,030 mM/kg/iv, 60 minutes from the treatment, listed as Compound according to the Ex.1): 26,5 ± 0,27 °C; Temperature (°C) of the hind paws (n=10) ([7]; dose 0,030 mM/kg/iv, 120 minutes from the treatment, listed as Compound according to the Ex.1): 26,3 ± 0,30 °C; Temperature (°C) of the hind paws ([7]; dose 0,125 mM/kg/os, 0 minutes (before the treatment)): 24,3 ± 0,24 °C; Temperature (°C) of the hind paws ([7]; dose 0,125 mM/kg/os, 30 minutes from the treatment): 24,7 ± 0,32 °C; Temperature (°C) of the hind paws ([7]; dose 0,125 mM/kg/os, 60 minutes from the treatment): 024,9 ± 0,30 °C; Temperature (°C) of the hind paws ([7]; dose 0,125 mM/kg/os, 120 minutes from the treatment): 25,2 ± 0,35 °C; Temperature (°C) of the hind paws ([7]; dose 0,250 mM/kg/os, 0 minutes (before the treatment)): 24,7 ± 0,20 °C; Temperature (°C) of the hind paws ([7]; dose 0,250 mM/kg/os, 30 minutes from the treatment): 25,2 ± 0,44 °C; Temperature (°C) of the hind paws ([7]; dose 0,250 mM/kg/os, 60 minutes from the treatment): 25,8 ± 0,32 °C; Temperature (°C) of the hind paws ([7]; dose 0,250 mM/kg/os, 120 minutes from the treatment): 25,5 ± 0,50 °C; Temperature (°C) of the hind paws ([7]; dose 0,500 mM/kg/os, 0 minutes (before the treatment), listed as Compound according to the Example 1): 24,6 ± 0,25 °C; Temperature (°C) of the hind paws ([7]; dose 0,500 mM/kg/os, 30 minutes from the treatment, listed as Compound according to the Example 1): 26,8 ± 0,30 °C; Temperature (°C) of the hind paws ([7]; dose 0,500 mM/kg/os, 60 minutes from the treatment, listed as Compound according to the Example 1): 27,5 ± 0,40 °C; Temperature (°C) of the hind paws ([7]; dose 0,500 mM/kg/os, 120 minutes from the treatment, listed as Compound according to the Example 1): 27,2 ± 0,45 °C
